In patent US6737383B1, “Herbicidal oxadiazolidines” (priority 1999, dated 2004):

What was measured:
[1] = system: sugar beet; assay: Test B pre/postemergence sugar beet; assay type: in vivo, Beta vulgaris
Procedure, shortened: (§1)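 Herbicidal effect was estimated by eye on a ten-point control scale after plants spent twelve to sixteen days in a greenhouse following soil or foliar treatment. Foliar sprays targeted plants at one to four leaves; all doses were formulated in a non-phytotoxic solvent with surfactant.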

[2] = system: bamyardgrass; assay: Test B flood test barnyardgrass; assay type: in vivo, Echinochloa crus-galli
Procedure, shortened: (§2)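 Each value is a visual injury score relative to controls, with 10 meaning complete control and 0 no effect. Evaluation took place twelve to sixteen days after the 2-leaf-stage plants were treated and kept in the greenhouse.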

[3] = system: wild oat; assay: Test B pre/postemergence wild oat; assay type: in vivo, Avena fatua
Procedure, shortened: as §1

[4] = system: smallflower flatsedge; assay: Test B flood test smallflower flatsedge; assay type: in vivo, Cyperus difformis
Procedure, shortened: as §2

[5] = system: rice; assay: Test B flood test rice; assay type: in vivo, Oryza sativa
Procedure, shortened: as §2

[6] = system: purple nutsedge; assay: Test B pre/postemergence purple nutsedge; assay type: in vivo, Cyperus rotundus
Procedure, shortened: as §1

[7] = system: duck salad; assay: Test B flood test duck salad; assay type: in vivo, Heteranthera limosa
Procedure, shortened: as §2

[8] = system: rape; assay: Test B pre/postemergence rape; assay type: in vivo, Brassica napus
Procedure, shortened: as §1

[9] = system: pigweed; assay: Test B pre/postemergence pigweed; assay type: in vivo, Amaranthus retroflexus
Procedure, shortened: as §1

[10] = system: velvetleaf; assay: Test B pre/postemergence velvetleaf; assay type: in vivo, Abutilon theophrasti
Procedure, shortened: as §1

[11] = system: blackgrass; assay: Test B pre/postemergence blackgrass; assay type: in vivo, Alopecurus myosuroides
Procedure, shortened: as §1

[12] = system: giant foxtail; assay: Test B pre/postemergence giant foxtail; assay type: in vivo, Setaria faberii
Procedure, shortened: as §1

[13] = system: cocklebur; assay: Test B pre/postemergence cocklebur; assay type: in vivo, Xanthium strumarium
Procedure, shortened: as §1

[14] = system: morningglory; assay: Test B pre/postemergence morningglory; assay type: in vivo, Ipomoea hederacea
Procedure, shortened: as §1

[15] = system: wheat; assay: Test B pre/postemergence wheat; assay type: in vivo, Triticum aestivum
Procedure, shortened: as §1

[16] = system: soybean; assay: Test B pre/postemergence soybean; assay type: in vivo, Glycine max
Procedure, shortened: as §1

[17] = Postemergence, Rate 250 g/ha, scale 0 to 10
[18] = Postemergence, Rate 500 g/ha, scale of 0 to 10 where 0 is no effect and 10 is complete control
[19] = Postemergence, Rate 1000 g/ha, scale 0 to 10 (0 no effect, 10 complete control)
[20] = Preemergence, Rate 125 g/ha, scale of 0 to 10 where 0 is no effect and 10 is complete control
[21] = Preemergence, Rate 250 g/ha, scale 0 to 10, 0 is no effect, 10 is complete control
[22] = Preemergence, Rate 500 g/ha, scale 0 to 10, 0 is no effect, 10 is complete control
[23] = Rate 125 g/ha, Postemergence, scale 0 to 10, 0 is no effect, 10 is complete control
[24] = Rate 1000 g/ha, Preemergence, scale 0 to 10 (0 no effect, 10 complete control)
[25] = Pre-emergence, Rate 1000 g/ha, scale 0 to 10 (0 no effect, 10 complete control)
[26] = Rate 125 g/ha, under heading Pre-emergence, flood test species, visual evaluation after twelve to sixteen days
[27] = Rate 250 g/ha, Pre-emergence (flood test species), scale 0 to 10, 0 is no effect, 10 is complete control
[28] = Rate 500 g/ha, Pre-emergence, flood test species, scale 0 to 10 (0 no effect, 10 complete control)

CCOP(=O)(Cn1c(=O)on(C(=O)N(c2ccccc2)C(C)C)c1=O)OCC [Compound 447]
Sugarbeets plant response rating [1, 17]: 0
Sugarbeets plant response rating [1, 18]: 0
Sugarbeets plant response rating [1, 19]: 0
Plant response rating, Sugarbeets [1, 20]: 0
Sugarbeets plant response rating [1, 21]: 0
Sugarbeets plant response rating [1, 22]: 0
Sugarbeets plant response rating [1, 23]: 0
Plant response rating, Sugarbeets [1, 24]: 0
Barnyardgrass plant response rating [2, 25]: 0
Barnyardgrass plant response rating (0 to 10 scale, 0 is no effect, 10 is complete control) [2, 26]: 0
Barnyardgrass plant response rating [2, 27]: 0
Barnyardgrass plant response rating [2, 28]: 0
Wild oats plant response rating [3, 17]: 0
Wild oats plant response rating [3, 18]: 0
Wild oats plant response rating [3, 19]: 0
Plant response rating, Wild oats [3, 20]: 0
Wild oats plant response rating [3, 21]: 2
Wild oats plant response rating [3, 22]: 7
Wild oats plant response rating [3, 23]: 0
Plant response rating, Wild oats [3, 24]: 10
S. Flatsedge plant response rating [4, 25]: 0
S. Flatsedge plant response rating (0 to 10 scale, 0 is no effect, 10 is complete control) [4, 26]: 0
S. Flatsedge plant response rating [4, 27]: 0
S. Flatsedge plant response rating [4, 28]: 0
Rice plant response rating [5, 25]: 0
Rice plant response rating (0 to 10 scale, 0 is no effect, 10 is complete control) [5, 26]: 0
Rice plant response rating [5, 27]: 0
Rice plant response rating [5, 28]: 0
Nutsedge plant response rating [6, 17]: 0
Nutsedge plant response rating [6, 18]: 0
Nutsedge plant response rating [6, 19]: 0
Plant response rating, Nutsedge [6, 20]: 0
Nutsedge plant response rating [6, 21]: 0
Nutsedge plant response rating [6, 22]: 0
Nutsedge plant response rating [6, 23]: 0
Plant response rating, Nutsedge [6, 24]: 0
Ducksalad plant response rating [7, 25]: 0
Ducksalad plant response rating (0 to 10 scale, 0 is no effect, 10 is complete control) [7, 26]: 0
Ducksalad plant response rating [7, 27]: 0
Ducksalad plant response rating [7, 28]: 0
Rape plant response rating [8, 17]: 0
Rape plant response rating [8, 18]: 0
Rape plant response rating [8, 19]: 0
Plant response rating, Rape [8, 20]: 0
Rape plant response rating [8, 21]: 0
Rape plant response rating [8, 22]: 0
Rape plant response rating [8, 23]: 0
Plant response rating, Rape [8, 24]: 0
Redroot pigweed plant response rating [9, 17]: 0
Redroot pigweed plant response rating [9, 18]: 0
Redroot pigweed plant response rating [9, 19]: 0
Plant response rating, Redroot pigweed [9, 20]: 0
Redroot pigweed plant response rating [9, 21]: 0
Redroot pigweed plant response rating [9, 22]: 0
Redroot pigweed plant response rating [9, 23]: 0
Plant response rating, Redroot pigweed [9, 24]: 0
Velvetleaf plant response rating [10, 17]: 0
Velvetleaf plant response rating [10, 18]: 0
Velvetleaf plant response rating [10, 19]: 0
Plant response rating, Velvetleaf [10, 20]: 0
Velvetleaf plant response rating [10, 21]: 0
Velvetleaf plant response rating [10, 22]: 0
Velvetleaf plant response rating [10, 23]: 0
Plant response rating, Velvetleaf [10, 24]: 0
Blackgrass plant response rating [11, 17]: 0
Blackgrass plant response rating [11, 18]: 2
Blackgrass plant response rating [11, 19]: 7
Plant response rating, Blackgrass [11, 20]: 0
Blackgrass plant response rating [11, 21]: 0
Blackgrass plant response rating [11, 22]: 0
Blackgrass plant response rating [11, 23]: 0
Plant response rating, Blackgrass [11, 24]: 3
Giant foxtail plant response rating [12, 17]: 0
Giant foxtail plant response rating [12, 18]: 0
Giant foxtail plant response rating [12, 19]: 0
Plant response rating, Giant foxtail [12, 20]: 3
Giant foxtail plant response rating [12, 21]: 7
Giant foxtail plant response rating [12, 22]: 8
Giant foxtail plant response rating [12, 23]: 0
Plant response rating, Giant foxtail [12, 24]: 10
Cocklebur plant response rating [13, 17]: 0
Cocklebur plant response rating [13, 18]: 0
Cocklebur plant response rating [13, 19]: 0
Plant response rating, Cocklebur [13, 20]: 0
Cocklebur plant response rating [13, 21]: 0
Cocklebur plant response rating [13, 22]: 0
Cocklebur plant response rating [13, 23]: 0
Plant response rating, Cocklebur [13, 24]: 0
Morningglory plant response rating [14, 17]: 4
Morningglory plant response rating [14, 18]: 7
Morningglory plant response rating [14, 19]: 10
Plant response rating, Morningglory [14, 20]: 0
Morningglory plant response rating [14, 21]: 0
Morningglory plant response rating [14, 22]: 0
Morningglory plant response rating [14, 23]: 2
Plant response rating, Morningglory [14, 24]: 2
Wheat plant response rating [15, 17]: 0
Wheat plant response rating [15, 18]: 0
Wheat plant response rating [15, 19]: 0
Plant response rating, Wheat [15, 20]: 0
Wheat plant response rating [15, 21]: 0
Wheat plant response rating [15, 22]: 0
Wheat plant response rating [15, 23]: 0
Plant response rating, Wheat [15, 24]: 0
Soybean plant response rating [16, 17]: 2
Soybean plant response rating [16, 18]: 4
Soybean plant response rating [16, 19]: 6
Plant response rating, Soybean [16, 20]: 0
Soybean plant response rating [16, 21]: 0
Soybean plant response rating [16, 22]: 0
Soybean plant response rating [16, 23]: 1
